This note sets out measurements from the Kinase Knowledgebase extract (Sharma et al. 2016).

“And” between values parts separate entries of the source, which are not always exact repeats. Identical values can stand only once. A value given as a limit tells only on which side of the number the result lay.

In experiment [1] the target is CDK2 (human) (UniProt P24941). The experiment is described as follows: Enzyme Assay.
In a further experiment the target is CDK2;CDK1 (human) (UniProt P24941). The experiment is described as follows: Cell-Based Assay.
The target in experiment [2] is CDK2 (human) (UniProt P24941). The experiment is described as follows: Enzyme Assay. The source holds these as a separate data set.

As for `CC(C)n1cnc2c(NCc3ccc(-c4ccccc4)cc3)nc(NC3(CO)CCCC3)nc21`, the IC50 (usually the concentration needed to halve the response being measured) against CDK2 (human) [1] was greater than 10 µM.
In turn, `CC(=O)N[C@H]1CC[C@H](Nc2nc(NCc3ccc(-c4ccc(F)cc4)cc3)c3ncn(C(C)C)c3n2)CC1` returned an IC50 against CDK2 (human) [1] greater than 10 µM.
Turning to `CC(C)n1cnc2c(NCc3ccc(-c4ccccc4)cc3)nc(N[C@H]3CC[C@H](O)CC3)nc21`, the IC50 on CDK2 (human) [1] is greater than 10 µM. Moreover, in the experiment with CDK2;CDK1 (human) (adr-res), the GI50 – broadly, the concentration at which growth is held to half of that of the control – came to 0.03 µM.
`CC(=O)N[C@@H](C)CNc1nc(NCc2ccc(-c3ccccc3)cc2)c2ncn(C(C)C)c2n1`: the results for the IC50 against CDK2 (human) [1] and at CDK2 (human) [2] were no less than 10 µM and greater than 10 µM, respectively.
With `CC(=O)N[C@H]1CC[C@H](Nc2nc(NCc3ccc(-c4ccc(C(=O)O)cc4)cc3)c3ncn(C(C)C)c3n2)CC1`, the IC50 against CDK2 (human) [1] and against CDK2 (human) [2] was greater than 10 µM each time.
Consider `CC(=O)N[C@H]1CCCC[C@@H]1Nc1nc(NCc2ccc(-c3ccccc3)cc2)c2ncn(C(C)C)c2n1`, for which the IC50 on CDK2 (human) [1] and against CDK2 (human) [2] was greater than 10 µM throughout.
Take `CC(C)n1cnc2c(NCc3ccc(-c4ccccc4)cc3)nc(N[C@H]3CCCC[C@H]3NC(=O)Nc3ccccc3)nc21`: the IC50 on CDK2 (human) [1] and against CDK2 (human) [2] was greater than 10 µM in each case.
Regarding `CC(=O)N[C@H]1CC[C@H](Nc2nc(NCc3ccc(-c4ccc(F)c(Cl)c4)cc3)c3ncn(C(C)C)c3n2)CC1`, the IC50 at CDK2 (human) [1] was greater than 10 µM.
Same read-out and setting: for `CC(=O)N[C@H]1CC[C@H](Nc2nc(NCc3ccc(-c4ccc(Cl)cc4)cc3)c3ncn(C(C)C)c3n2)CC1` the value was greater than 10 µM; for `CC[C@H](CO)Nc1nc(NCc2ccc(-c3cccc(NC(C)=O)c3)cc2)c2ncn(C(C)C)c2n1`, greater than 10 µM.
For `CC(C)n1cnc2c(NCc3ccc(-c4cccc(F)c4)cc3)nc(N[C@H]3CC[C@H](N)CC3)nc21`, the GI50 with CDK2;CDK1 (human) (hela-s3) is 0.05 µM and 0.03 µM.
`CC(=O)N[C@H]1CC[C@H](Nc2nc(NCc3ccc(-c4cccc(F)c4)cc3)c3ncn(C(C)C)c3n2)CC1`: in the experiment with CDK2;CDK1 (human) (hela-s3), the GI50 is 0.07 µM and 0.2 µM.
Regarding `CC(=O)N[C@H]1CC[C@H](Nc2nc(NCc3ccc(-c4ccccc4)nc3)c3ncn(C(C)C)c3n2)CC1`, the GI50 with CDK2;CDK1 (human) (h226) was determined as 0.052 µM.
Regarding `COC(=O)c1ccc(-c2ccc(CNc3nc(N[C@H]4CC[C@H](NC(C)=O)CC4)nc4c3ncn4C(C)C)cc2)cc1`, the IC50 against CDK2 (human) [1] was greater than 10 µM.
`CC(=O)N[C@H]1CC[C@H](Nc2nc(NCc3ccc(-c4ccc(C)cc4)cc3)c3ncn(C(C)C)c3n2)CC1` registered an IC50 against CDK2 (human) [1] greater than 10 µM.
In the case of `CC(=O)C1CCN(c2nc(NCc3ccc(-c4ccccc4)cc3)c3ncn(C(C)C)c3n2)CC1`, the GI50 with CDK2;CDK1 (human) (hela-s3) is 3 µM and 5 µM.
